Assay results as given in article PMC8196973, “Synthesis, Molecular Docking Analysis and Biological Evaluations of Saccharide-Modified Thiadiazole Sulfonamide Derivatives” (International Journal of Molecular Sciences, 2021).
Converted amounts (≈) assume the structure as drawn.

Assays:
hCA IX = hCA IX (Homo sapiens, UniProt Q16790); experiment: hCA IX enzyme inhibition assay (4-NPA hydrolysis)
Procedure: (§2) Carbonic anhydrase can catalyze the hydrolysis of 4-nitrophenyl acetate (4-NPA). […] The experimental buffer consisted of 15 mmol/L 4-(2-hydroxyethyl)-1-piperazineethanesulfonic acid (HEPES) (pH = 7.40), 0.01% tetraethylene glycol monododecyl ether (Brij), and 100 mmol/L NaCl. […] Then, 18 μL of enzyme solution was transferred into 384-well plates in duplicate. Stock solutions of the inhibitors (10.0 mmol/L) were prepared using DMSO as solvent, and then diluted 1:3 with DMSO. […] Then 2.00 μL of each inhibitor was added to each well. All compounds were allowed to incubate with the enzyme for 15 min at 25 °C to form the Enzyme-Inhibitor (E-I) complex. After that, substrate 4-NPA (1.00 mmol/L, 20.00 μL, Sigma-Aldrich, St. Louis, MI, USA) was added into the E-I complex solution and incubated for 60, 90, 90 min at 25 °C, respectively.

hCA II = hCA II (Homo sapiens, UniProt P00918); experiment: hCA II enzyme inhibition assay (4-NPA hydrolysis)
Procedure: as §2

hCA XII = hCA XII (Homo sapiens, UniProt O43570); experiment: hCA XII enzyme inhibition assay (4-NPA hydrolysis)
Sequence of hCA XII (O43570 25-354): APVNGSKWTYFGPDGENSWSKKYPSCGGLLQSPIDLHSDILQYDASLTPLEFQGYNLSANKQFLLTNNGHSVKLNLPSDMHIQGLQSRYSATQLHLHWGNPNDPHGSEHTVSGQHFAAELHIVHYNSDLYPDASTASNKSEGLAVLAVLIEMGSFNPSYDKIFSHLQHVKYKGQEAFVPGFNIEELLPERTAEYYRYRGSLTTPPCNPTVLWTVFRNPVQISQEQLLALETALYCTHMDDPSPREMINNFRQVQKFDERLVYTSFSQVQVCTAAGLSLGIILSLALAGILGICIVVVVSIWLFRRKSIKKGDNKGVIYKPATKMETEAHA
Procedure: as §2

[1] = test system: human colon cancer HT-29 cells; experiment: CCK-8 cell viability assay, HT-29; type: cell-based; conditions: Homo sapiens, HT-29; Table S2
Procedure: (§1) The MDA-MB-231, HT-29 and MG-63 cell lines were provided by KeyGEN BioTECH Ltd (Nanjing, Jiangsu, China). The cells were digested and counted to prepare a cell suspension of 5.0 × 10^4 cells/mL, and then 100 μL of cell suspension was added to each well of the 96-well cell culture plate. The plates were placed in a 37 °C, 5% CO2 incubator (Corning Incorporated, Corning, New York, USA) for 24 h. The drug was diluted with the culture medium to the required concentration, ed100 μL of the corresponding drug-containing medium was added to each well, and a negative control group was set up at the same time. The 96-well cell culture plates were placed into a normoxic incubator (37 °C, 5% CO2) and hypoxic incubator (37 °C, 5% CO2, 0.5% O2, 94.5% N2) for 48 h. Finally, the 96-well plate was stained with CCK-8 and the OD value determined (λ = 450 nm).

[2] = test system: breast adenocarcinoma MDA-MB-231 cells; experiment: CCK-8 cell viability assay, MDA-MB-231; type: cell-based, human; conditions: Homo sapiens, MDA-MB-231; Table S2
Procedure: as §1

| SMILES | IC50 (hCA IX) [µM] | IC50 (hCA II) [µM] | selectivity: inhibitory activity for hCA IX higher than that for hCA II (hCA IX; hCA IX over hCA II) [times] | IC50 (hCA XII) [µM] | IC50 [1] [µg/mL] | IC50 [2] [µg/mL] |
| --- | --- | --- | --- | --- | --- | --- |
| Nc1ccc(C(=O)Nc2nnc(S(N)(=O)=O)s2)cc1 [Compound 12a, 4-Amino-N-(5-sulfamoyl-1,3,4-thiadiazol-2-yl)benzamide] | 0.0446 ± 0.0083 |  |  |  |  |  |
| Nc1cccc(C(=O)Nc2nnc(S(N)(=O)=O)s2)c1 [Compound 12b, 3-Amino-N-(5-sulfamoyl-1,3,4-thiadiazol-2-yl)benzamide] | 0.0638 ± 0.0063 | 0.0791 ± 0.0054 |  |  |  |  |
| Nc1ccc(C(=O)Nc2nnc(S(N)(=O)=O)s2)cc1F [Compound 12c, 4-Amino-3-fluoro-N-(5-sulfamoyl-1,3,4-thiadiazol-2-yl)benzamide] | 0.0413 ± 0.0062 | 0.242 ± 0.0094 |  |  |  |  |
| Nc1ccc(C(=O)Nc2nnc(S(N)(=O)=O)s2)cc1Cl [Compound 12d, 4-Amino-3-chloro-N-(5-sulfamoyl-1,3,4-thiadiazol-2-yl)benzamide] | 0.0365 ± 0.0076 | 0.401 ± 0.0123 |  |  |  |  |
| Nc1ccc(C(=O)Nc2nnc(S(N)(=O)=O)s2)cc1Br [Compound 12e, 4-Amino-3-bromo-N-(5-sulfamoyl-1,3,4-thiadiazol-2-yl)benzamide] | 0.0659 ± 0.0083 | 0.543 ± 0.0103 |  |  |  |  |
| Nc1ccc(C(=O)Nc2nnc(S(N)(=O)=O)s2)cc1[N+](=O)[O-] [Compound 12f, 4-Amino-3-nitro-N-(5-sulfamoyl-1,3,4-thiadiazol-2-yl)benzamide] | 0.0551 ± 0.0115 | 0.701 ± 0.0132 | 10 |  |  |  |
| Cc1cc(C(=O)Nc2nnc(S(N)(=O)=O)s2)ccc1N [Compound 12g, 4-Amino-3-methyl-N-(5-sulfamoyl-1,3,4-thiadiazol-2-yl)benzamide] | 0.0438 ± 0.0066 | 0.12 ± 0.0148 |  |  |  |  |
| COc1cc(C(=O)Nc2nnc(S(N)(=O)=O)s2)ccc1N [Compound 12h, 4-Amino-3-methoxy-N-(5-sulfamoyl-1,3,4-thiadiazol-2-yl)benzamide] | 0.0364 ± 0.0083 | 0.147 ± 0.0153 |  |  |  |  |
| CC(=O)O[C@H]1C(=O)[C@@]2(C)[C@H]([C@H](OC(=O)c3ccccc3)[C@]3(O)C[C@H](OC(=O)[C@H](O)[C@@H](NC(=O)c4ccccc4)c4ccccc4)C(C)=C1C3(C)C)[C@]1(OC(C)=O)CO[C@@H]1C[C@@H]2O [Taxol, reference compound] |  |  |  |  | 0.111 (≈ 0.13 µM) | 0.099 (≈ 0.116 µM) |

The remaining lines, values ahead:

| IC50 (hCA IX) [µM] | IC50 (hCA II) [µM] | selectivity: inhibitory activity for hCA IX higher than that for hCA II (hCA IX; hCA IX over hCA II) [times] | IC50 (hCA XII) [µM] | IC50 [1] [µg/mL] | IC50 [2] [µg/mL] | SMILES |
| --- | --- | --- | --- | --- | --- | --- |
| 0.0766 ± 0.0062 | 0.215 ± 0.0095 |  | 0.0818 ± 0.0111 |  |  | NS(=O)(=O)c1nnc(NC(=O)c2ccc(NC(=O)CCCC(=O)N[C@@H]3O[C@H](CO)[C@@H](O)[C@H](O)[C@H]3O)c(F)c2)s1 [Compound 14c, N^1-(2-Fluoro-4-((5-sulfamoyl-1,3,4-thiadiazol-2-yl)carbamoyl)phenyl)-N^5-((2R,3R,4S,5S,6R)-3,4,5-trihydroxy-6-(hydroxymethyl)tetrahydro-2H-pyran-2-yl)glutaramide] |
| 0.28 ± 0.0102 | 0.765 ± 0.0151 |  |  |  |  | NS(=O)(=O)c1nnc(NC(=O)c2ccc(NC(=O)CCCC(=O)N[C@@H]3O[C@H](CO)[C@@H](O)[C@H](O)[C@H]3O)c(Cl)c2)s1 [Compound 14d, N^1-(2-Chloro-4-((5-sulfamoyl-1,3,4-thiadiazol-2-yl)carbamoyl)phenyl)-N^5-((2R,3R,4S,5S,6R)-3,4,5-trihydroxy-6-(hydroxymethyl)tetrahydro-2H-pyran-2-yl)glutaramide] |
| 1.082 ± 0.0085 | 0.886 ± 0.0137 |  |  |  |  | NS(=O)(=O)c1nnc(NC(=O)c2ccc(NC(=O)CCCC(=O)N[C@@H]3O[C@H](CO)[C@@H](O)[C@H](O)[C@H]3O)c(Br)c2)s1 [Compound 14e, N^1-(2-Bromo-4-((5-sulfamoyl-1,3,4-thiadiazol-2-yl)carbamoyl)phenyl)-N^5-((2R,3R,4S,5S,6R)-3,4,5-trihydroxy-6-(hydroxymethyl)tetrahydro-2H-pyran-2-yl)glutaramide] |
| 0.117 ± 0.0069 | 0.995 ± 0.0106 |  |  |  |  | NS(=O)(=O)c1nnc(NC(=O)c2ccc(NC(=O)CCCC(=O)N[C@@H]3O[C@H](CO)[C@@H](O)[C@H](O)[C@H]3O)c([N+](=O)[O-])c2)s1 [Compound 14f, N^1-(2-Nitro-4-((5-sulfamoyl-1,3,4-thiadiazol-2-yl)carbamoyl)phenyl)-N^5-((2R,3R,4S,5S,6R)-3,4,5-trihydroxy-6-(hydroxymethyl)tetrahydro-2H-pyran-2-yl)glutaramide] |
| 0.0534 ± 0.0062 | 0.165 ± 0.0091 |  | 0.0705 ± 0.0109 |  |  | Cc1cc(C(=O)Nc2nnc(S(N)(=O)=O)s2)ccc1NC(=O)CCCC(=O)N[C@@H]1O[C@H](CO)[C@@H](O)[C@H](O)[C@H]1O [Compound 14g, N^1-(2-Methyl-4-((5-sulfamoyl-1,3,4-thiadiazol-2-yl)carbamoyl)phenyl)-N^5-((2R,3R,4S,5S,6R)-3,4,5-trihydroxy-6-(hydroxymethyl)tetrahydro-2H-pyran-2-yl)glutaramide] |
| 0.0549 ± 0.0062 | 0.197 ± 0.0079 |  | 0.0528 ± 0.0114 |  |  | NS(=O)(=O)c1nnc(NC(=O)c2ccc(NC(=O)CCC(=O)NC3OC(CO)C(O)C(O)C3O)cc2)s1 [Compound 14i, N^1-(4-((5-Sulfamoyl-1,3,4-thiadiazol-2-yl)carbamoyl)phenyl)-N^4-((2R,3R,4S,5S,6R)-3,4,5-trihydroxy-6-(hydroxymethyl)tetrahydro-2H-pyran-2-yl)succinimide] |
| 0.0694 ± 0.0057 | 0.26 ± 0.0126 |  | 0.0406 ± 0.0069 |  |  | NS(=O)(=O)c1nnc(NC(=O)c2cccc(NC(=O)CCC(=O)N[C@@H]3O[C@H](CO)[C@@H](O)[C@H](O)[C@H]3O)c2)s1 [Compound 14j, N^1-(3-((5-Sulfamoyl-1,3,4-thiadiazol-2-yl)carbamoyl)phenyl)-N^4-((2R,3R,4S,5S,6R)-3,4,5-trihydroxy-6-(hydroxymethyl)tetrahydro-2H-pyran-2-yl)succinimide] |
| 0.141 ± 0.0081 | 0.474 ± 0.0071 |  |  |  |  | NS(=O)(=O)c1nnc(NC(=O)c2ccc(NC(=O)CCC(=O)N[C@@H]3O[C@H](CO)[C@@H](O)[C@H](O)[C@H]3O)c(F)c2)s1 [Compound 14k, N^1-(2-Fluoro-4-((5-sulfamoyl-1,3,4-thiadiazol-2-yl)carbamoyl)phenyl)-N^4-((2R,3R,4S,5S,6R)-3,4,5-trihydroxy-6-(hydroxymethyl)tetrahydro-2H-pyran-2-yl)succinimide] |
| 0.256 ± 0.0079 | 0.612 ± 0.0085 |  |  |  |  | NS(=O)(=O)c1nnc(NC(=O)c2ccc(NC(=O)CCC(=O)N[C@@H]3O[C@H](CO)[C@@H](O)[C@H](O)[C@H]3O)c(Cl)c2)s1 [Compound 14l, N^1-(2-Chloro-4-((5-sulfamoyl-1,3,4-thiadiazol-2-yl)carbamoyl)phenyl)-N^4-((2R,3R,4S,5S,6R)-3,4,5-trihydroxy-6-(hydroxymethyl)tetrahydro-2H-pyran-2-yl)succinimide] |
| 0.865 ± 0.0107 | 0.824 ± 0.0111 |  |  |  |  | NS(=O)(=O)c1nnc(NC(=O)c2ccc(NC(=O)CCC(=O)N[C@@H]3O[C@H](CO)[C@@H](O)[C@H](O)[C@H]3O)c(Br)c2)s1 [Compound 14m, N^1-(2-Bromo-4-((5-sulfamoyl-1,3,4-thiadiazol-2-yl)carbamoyl)phenyl)-N^4-((2R,3R,4S,5S,6R)-3,4,5-trihydroxy-6-(hydroxymethyl)tetrahydro-2H-pyran-2-yl)succinimide] |
| 0.291 ± 0.0109 | 1.4 ± 0.0246 |  |  |  |  | NS(=O)(=O)c1nnc(NC(=O)c2ccc(NC(=O)CCC(=O)N[C@@H]3O[C@H](CO)[C@@H](O)[C@H](O)[C@H]3O)c([N+](=O)[O-])c2)s1 [Compound 14n, N^1-(2-Nitro-4-((5-sulfamoyl-1,3,4-thiadiazol-2-yl)carbamoyl)phenyl)-N^4-((2R,3R,4S,5S,6R)-3,4,5-trihydroxy-6-(hydroxymethyl)tetrahydro-2H-pyran-2-yl)succinimide] |
| 0.135 ± 0.007 | 0.27 ± 0.0139 |  |  |  |  | Cc1cc(C(=O)Nc2nnc(S(N)(=O)=O)s2)ccc1NC(=O)CCC(=O)N[C@@H]1O[C@H](CO)[C@@H](O)[C@H](O)[C@H]1O [Compound 14o, N^1-(2-Methy-4-((5-sulfamoyl-1,3,4-thiadiazol-2-yl)carbamoyl)phenyl)-N^4-((2R,3R,4S,5S,6R)-3,4,5-trihydroxy-6-(hydroxymethyl)tetrahydro-2H-pyran-2-yl)succinimide] |
